{"source": "paper PMC6691401", "about": "(Journal of Medicinal Chemistry, 2019)", "key": {"Mab TrmD [1]": {"target": "T1, Mab TrmD (Mycobacteroides abscessus, UniProt B1MDI3)", "parameters": "method as in PMID 32602532", "settings": "cited from earlier work; for ΔTm: Table 3, 5 mM ligand and 10 μM Mab TrmD; for thermal shift (ΔTm): 5 mM ligand"}, "Mab TrmD [2]": {"target": "T1, Mab TrmD", "settings": "ligand efficiency, previously reported, cited from earlier work"}, "Mab TrmD [3]": {"target": "T1, Mab TrmD", "assay": "Isothermal titration calorimetry (ITC)", "type": "binding", "settings": "for GE (R^1): group efficiency of R^1; for LE: ligand efficiency; for GE: group efficiency of the added group"}, "Mab TrmD [4]": {"target": "T1, Mab TrmD", "assay": "Native mass spectrometry of ligand binding", "settings": "20 μM Mab TrmD, 100 μM ligand, 5% DMSO", "protocol": "Native nanoelectrospray ionization mass spectrometry spectra were recorded on a Synapt HDMS mass spectrometer (Waters, Manchester, UK) modified for studying high masses. Mab TrmD was exchanged into 200 mM ammonium acetate (pH 7.0) solution using Micro Bio-Spin 6 chromatography columns (Bio-Rad, UK). Protein samples were equilibrated at room temperature in the absence or presence of the indicated concentrations of ligands for at least 15 min before analysis. Protein solution (2.5 μL) was injected into a gold-coated borosilicate emitter (Thermo Scientific, UK) for sampling. Typical conditions were capillary voltage 1.5 kV, cone voltage 50 V, trap collision voltage 20 V, transfer collision voltage 20 V, source temperature 20 °C, backing pressure 3–4 mbar, trap pressure 3–4 × 10^–2 mbar, IM (N2) pressure 5–6 × 10^–1 mbar and TOF pressure 7–8 × 10^–7 mbar. All mass spectra were calibrated externally with caesium iodide (10 mg/mL). Data acquisition and processing were performed using MassLynx 4.1 (Waters)."}, "Mab TrmD [5]": {"target": "T1, Mab TrmD", "assay": "Differential scanning fluorimetry (DSF) thermal shift", "type": "binding", "settings": "5 mM ligand"}, "[6]": {"target": "the molecule itself", "assay": "native MS; nanoelectrospray, Mab TrmD exchanged into 200 mM ammonium acetate pH 7.0, room temperature, protein alone (dimer also seen with 5% DMSO and with ligands)"}}, "note": "Read-outs that look alike come from different tables or passages of the source."}
{"molecule": "OB(O)c1ccc2cc[nH]c2c1", "note": "[Compound 20, (1H-indol-6-yl)boronic acid]", "values": [{"measurement": "ΔTm", "setting": "Mab TrmD [1]", "value": "+4.0 °C"}, {"measurement": "LE", "setting": "Mab TrmD [2]; Table 3", "value": "0.41 kcal mol^–1 per heavy atom"}, {"measurement": "LE", "setting": "Mab TrmD [2]", "value": "0.41 kcal mol^–1 per heavy atom"}]}
{"molecule": "Nc1cc(-c2ccc3ccn(Cc4ccccc4)c3c2)[nH]n1", "note": "[Compound 24c, 5-(1-Benzyl-1H-indol-6-yl)-1H-pyrazol-3-amine]", "values": [{"measurement": "GE (R^1)", "setting": "Mab TrmD [3]; Table 4", "value": "0.15 kcal mol^–1 per heavy atom"}, {"measurement": "LE", "setting": "Mab TrmD [3]; Table 4", "value": "0.29 kcal mol^–1 per heavy atom"}, {"measurement": "GE", "setting": "Mab TrmD [3]", "value": "0.15 kcal mol^–1 per heavy atom"}, {"measurement": "LE", "setting": "Mab TrmD [3]", "value": "0.29 kcal mol^–1 per heavy atom"}, {"measurement": "binding to Mab TrmD dimer observed by native MS", "setting": "Mab TrmD [4]", "value": "entirely doubly bound"}]}
{"molecule": "COc1cccc(-c2cc(N)n[nH]2)c1", "note": "[Compound 19, 5-(3-Methoxyphenyl)-1H-pyrazol-3-amine]", "values": [{"measurement": "thermal shift (ΔTm)", "setting": "Mab TrmD [5]", "value": "negative thermal shift"}]}
{"molecule": "N#Cc1c(N)n[nH]c1-c1ccc2ccn(Cc3ccc(CN4CCCC4)cc3)c2c1", "note": "[Compound 29a, 3-Amino-5-(1-(4-(pyrrolidin-1-ylmethyl)benzyl)-1H-indol-6-yl)-1H-pyrazole-4-carbonitrile]", "values": [{"measurement": "LE", "setting": "Mab TrmD [2]; Table 6", "value": "0.34 kcal mol^–1 per heavy atom"}, {"measurement": "LE", "setting": "Mab TrmD [2]", "value": "0.34 kcal mol^–1 per heavy atom"}, {"measurement": "binding to Mab TrmD dimer observed by native MS", "setting": "Mab TrmD [4]", "value": "low gas-phase stabilities"}]}
{"molecule": "O=C(O)c1ccc2cc[nH]c2c1", "note": "[Compound 21, 1H-indole-6-carboxylic acid]", "values": [{"measurement": "thermal shift (ΔTm)", "setting": "Mab TrmD [1]", "value": "no ΔTm observed"}, {"measurement": "ΔTm", "setting": "Mab TrmD [1]", "value": "–0.6 °C"}]}
{"molecule": "Nc1cc(-c2ccccc2)n[nH]1", "note": "[Compound 17, 5-phenyl-1H-pyrazol-3-amine]", "values": [{"measurement": "thermal shift (ΔTm)", "setting": "Mab TrmD [1]", "value": "1.4–1.5 °C"}, {"measurement": "ΔTm", "setting": "Mab TrmD [1]", "value": "+1.5 °C"}]}
{"molecule": "Cc1ccc(-c2cc(N)[nH]n2)cc1", "note": "[Compound 18, 5-(p-tolyl)-1H-pyrazol-3-amine]", "values": [{"measurement": "thermal shift (ΔTm)", "setting": "Mab TrmD [1]", "value": "1.4–1.5 °C"}, {"measurement": "ΔTm", "setting": "Mab TrmD [1]", "value": "+1.4 °C"}]}
{"molecule": "N#Cc1c(N)n[nH]c1-c1ccc2ccn(Cc3ccccn3)c2c1", "note": "[Compound 26f, 3-Amino-5-(1-(pyridin-2-ylmethyl)-1H-indol-6-yl)-1H-pyrazole-4-carbonitrile]", "values": [{"measurement": "GE (R^1)", "setting": "Mab TrmD [3]; Table 4", "value": "0.20 kcal mol^–1 per heavy atom"}, {"measurement": "GE", "setting": "Mab TrmD [3]", "value": "0.95 kcal mol^–1 per heavy atom"}, {"measurement": "LE", "setting": "Mab TrmD [2]; Table 4", "value": "0.36 kcal mol^–1 per heavy atom"}, {"measurement": "LE", "setting": "Mab TrmD [2]", "value": "0.36 kcal mol^–1 per heavy atom"}]}
{"molecule": "CCNC(=O)c1cn[nH]c1", "note": "[Compound 2, N-Ethyl-1H-pyrazole-4-carboxamide]", "values": [{"measurement": "ΔTm", "setting": "Mab TrmD [5]", "value": "< 0.5", "unit": "°C"}]}
{"molecule": "COc1ccc(-c2cc(N)[nH]n2)cc1", "note": "[Compound 16, 5-(4-methoxyphenyl)-1H-pyrazol-3-amine]", "values": [{"measurement": "ΔTm", "setting": "Mab TrmD [1]", "value": "+3.0 °C"}, {"measurement": "LE", "setting": "Mab TrmD [2]; Table 3", "value": "0.37 kcal mol^–1 per heavy atom"}, {"measurement": "LE", "setting": "Mab TrmD [2]", "value": "0.37 kcal mol^–1 per heavy atom"}]}
{"molecule": "Mycobacterium abscessus tRNA (m1G37) methyltransferase (TrmD) (enzyme, UniProt B1MDI3 1-242, looked up) MKIDVVTIFPEYLQPVRQSLPGKAIDAGLVDVAVHDLRRWTHDVHKSVDDSPYGGGPGMVMKPTVWGDALDEICTSETLLVVPTPAGYPFTQETAWQWSTEDHLVIACGRYEGIDQRVADDAATRMRVREVSIGDYVLNGGEAAALVIIEAVLRLVPGVLGNALSAQEDSHSEGMASLLEGPSYTRPPSWRGMDVPPVLLSGDHAKIAAWRAEQSRQRTIERRPDLLGFDSPTGEHGGDGLS", "values": [{"measurement": "stoichiometry N", "setting": "[6]", "value": 2}]}
